Source: patent publication US20250177383A1, “DI-CYCLOPROPYL BASED IL-17A MODULATORS AND USES THEREOF” (DICE ALPHA, INC., priority 2022, published 2025)

How the values were obtained:
[1] = biological target: T1, IL-17A/F (Homo sapiens, UniProt Q16552+Q96PD4); assay: IL-17A/F HEK-Blue Cell Assay; assay type: cell-based; details: HEK-Blue IL-17 reporter cells, IL-17A/F stimulation, 20 hours, SEAP readout; read-out: IL17AF HEK Blue pIC50 (converted)
T1 sequence (Q16552 24-155): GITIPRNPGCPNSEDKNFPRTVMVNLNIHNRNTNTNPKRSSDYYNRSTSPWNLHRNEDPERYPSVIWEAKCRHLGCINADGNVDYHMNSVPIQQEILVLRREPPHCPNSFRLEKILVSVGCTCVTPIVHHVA
T1 sequence (Q96PD4 31-163): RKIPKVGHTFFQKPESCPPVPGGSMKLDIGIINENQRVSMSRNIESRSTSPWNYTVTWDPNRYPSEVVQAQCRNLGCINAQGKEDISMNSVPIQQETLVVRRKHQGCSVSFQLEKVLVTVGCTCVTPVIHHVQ
Description: The HEK-Blue IL-17 reporter cell line (Fisher #NC1408637) was used for cell-based IL-17A/F inhibition assays. Cells were grown and prepared for assays according to the manufacturer's instructions. This cell line consists of HEK 293 cells that were designed to expressed IL-17RA, IL-17R^C, and the ActI adapter molecule, the combination of which, when stimulated by IL-17A/A activates a NFκB promoter and drives expression of a recombinant Secreted Alkaline Phosphatase (SEAP) geneprotein. Media from the cells is then added to a development reagent (Quanti-Blue Substrate, Fisher #NC9711613), and read at A630.
Compounds were titrated in DMSO and added to the cells immediately before adding IL-17A/A (Custom from R&D systems, untagged IL-17A/F+BSA as a carrier protein). The cells, compound, and IL-17A/A were then incubated for 20 hours before media was removed for SEAP analysis. The resulting inhibition curve was then analyzed using a Dotmatics screening protocol, and IC50 values were determined using a 4-parameter nonlinear fit. DMSO was added to a universal final concentration of 0.1% to optimize background.

[2] = biological target: T2, IL-17A/A (Homo sapiens, UniProt Q16552); assay: IL-17A/A HEK-Blue Cell Assay; assay type: cell-based; details: HEK-Blue IL-17 reporter cells, IL-17A/A stimulation, 20 hours, SEAP readout; read-out: IL17 AA HEK-5 pIC50 (converted)
T2 sequence (Q16552 24-155): T1 sequence (Q16552 24-155)
In short: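 Cells co-expressing IL-17RA, IL-17RC and Act1 received titrated compound, top final 10 uM in 0.1% DMSO, immediately before IL-17A/A stimulation.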

| SMILES | IC50 [1] [nM] | IC50 [2] [nM] |
| --- | --- | --- |
| CCn1nccc1C(=O)N[C@H](C(=O)Nc1ccc([C@H](C)[C@@H](NC(=O)COC)C(=O)N2CCN(C)C[C@@H]2C)cc1F)C(C1CC1)C1CC1 [Compound 283] | 10 to 100 | < 10 |
| CCn1nccc1C(=O)N[C@H](C(=O)Nc1ccc([C@H](C)[C@@H](NC(=O)[C@H](C)OC)C(=O)N2CCN(C)C[C@@H]2C)cc1F)C(C1CC1)C1CC1 [Compound 284] | 10 to 100 | < 10 |
| CO[C@@H](C)C(=O)N[C@@H](C(=O)N1CCN(C)C[C@@H]1C)[C@@H](C)c1ccc(NC(=O)[C@@H](NC(=O)C2(F)CC2)C(C2CC2)C2CC2)c(F)c1 [Compound 285] | 100 to 10000 | 10 to 100 |
| CCn1nccc1C(=O)N[C@H](C(=O)Nc1ccc([C@H](C)[C@@H](NC(=O)COC)C(=O)N2C[C@@H](C)N(C)C[C@H]2C)cc1F)C(C1CC1)C1CC1 [Compound 286] | 10 to 100 | < 10 |
| CCn1nccc1C(=O)N[C@H](C(=O)Nc1ccc([C@H](C)[C@@H](NC(=O)[C@H](C)OC)C(=O)N2C[C@@H](C)N(C)C[C@H]2C)cc1F)C(C1CC1)C1CC1 [Compound 287] | < 10 | < 10 |
| CCC(=O)N[C@@H](C(=O)N1C[C@@H](C)N(C)C[C@H]1C)[C@@H](C)c1ccc(NC(=O)[C@@H](NC(=O)C2(F)CC2)C(C2CC2)C2CC2)c(F)c1 [Compound 288] | 100 to 10000 | < 10 |
| COCC(=O)N[C@@H](C(=O)N1C[C@@H](C)N(C)C[C@H]1C)[C@@H](C)c1ccc(NC(=O)[C@@H](NC(=O)C2(F)CC2)C(C2CC2)C2CC2)c(F)c1 [Compound 289] | 100 to 10000 | < 10 |
| CO[C@@H](C)C(=O)N[C@@H](C(=O)N1C[C@@H](C)N(C)C[C@H]1C)[C@@H](C)c1ccc(NC(=O)[C@@H](NC(=O)C2(F)CC2)C(C2CC2)C2CC2)c(F)c1 [Compound 290] | 100 to 10000 | < 10 |
| CCn1nccc1C(=O)N[C@H](C(=O)Nc1ccc([C@H](C)[C@@H](NC(=O)N(C)C2CC2)C(=O)N2CCN(C)[C@H](C)C2)cc1F)C(C1CC1)C1CC1 [Compound 291] | < 10 | < 10 |
| CCn1nccc1C(=O)N[C@H](C(=O)Nc1ccc([C@H](C)[C@@H](NC(=O)C(C)(F)F)C(=O)N2CCN(C)[C@H](C)C2)cc1F)C(C1CC1)C1CC1 [Compound 292] | 10 to 100 | < 10 |
| CCn1nccc1C(=O)N[C@H](C(=O)Nc1ccc([C@H](C)[C@@H](NC(=O)COC)C(=O)N2C[C@@H](C)N(C)[C@@H](C)C2)cc1F)C(C1CC1)C1CC1 [Compound 293] | 10 to 100 | < 10 |
| CO[C@@H](C)C(=O)N[C@@H](C(=O)N1C[C@H]2CC[C@@H](C1)N2C)[C@@H](C)c1ccc(NC(=O)[C@@H](NC(=O)C2(F)CC2)C(C2CC2)C2CC2)c(F)c1 [Compound 294] | 100 to 10000 | 10 to 100 |
| C[C@@H](c1ccc(NC(=O)[C@@H](NC(=O)C2(F)CC2)C(C2CC2)C2CC2)c(F)c1)[C@@H](NC(=O)N(C)C1CC1)C(=O)N1C[C@H]2CC[C@@H](C1)N2C [Compound 295] | 100 to 10000 | < 10 |
| CCn1nccc1C(=O)N[C@H](C(=O)Nc1ccc([C@H](C)[C@@H](NC(=O)[C@H](C)N(C)C2=NCCO2)C(=O)N2CCN(C)[C@H](C)C2)cc1F)C(C1CC1)C1CC1 [Compound 296] | 10 to 100 | < 10 |
| CCC(=O)N[C@@H](C(=O)N1CCN(C)[C@H](C)C1)[C@@H](C)c1ccc(NC(=O)[C@@H](NC(=O)c2ccnn2C)C(C2CC2)C2CC2)c(F)c1 [Compound 297] | 10 to 100 | < 10 |
| CCn1nccc1C(=O)N[C@H](C(=O)Nc1ccc([C@H](C)[C@@H](NC(=O)[C@H](C)N(C)c2ncncn2)C(=O)N2CCN(C)[C@H](C)C2)cc1F)C(C1CC1)C1CC1 [Compound 305] | < 10 | < 10 |
| CCn1nccc1C(=O)N[C@H](C(=O)Nc1ccc([C@H](C)[C@@H](NC(=O)[C@H](C)Nc2ncccn2)C(=O)N2CCN(C)[C@H](C)C2)cc1F)C(C1CC1)C1CC1 [Compound 306] | < 10 | < 10 |
| CCn1nccc1C(=O)N[C@H](C(=O)Nc1ccc([C@H](C)[C@@H](NC(=O)[C@H](C)OC)C(=O)N2C[C@H]3C[C@@H](C2)N3C)cc1F)C(C1CC1)C1CC1 [Compound 307] | 100 to 10000 | 10 to 100 |
| CO[C@@H](C)C(=O)N[C@@H](C(=O)N1CCN(C)[C@H](C)C1)[C@@H](C)c1ccc(NC(=O)[C@@H](NC(=O)c2nonc2C)C(C2CC2)C2CC2)c(F)c1 [Compound 308] | 100 to 10000 | < 10 |
| CCOCCN(C)C(=O)N[C@@H](C(=O)N1CCN(C)[C@H](C)C1)[C@@H](C)c1ccc(NC(=O)[C@@H](NC(=O)c2ccnn2CC)C(C2CC2)C2CC2)c(F)c1 [Compound 313] | 100 to 10000 | 10 to 100 |

Further lines, results first:

| IC50 [1] [nM] | IC50 [2] [nM] | SMILES |
| --- | --- | --- |
| 100 to 10000 | 10 to 100 | CCOCCN(C)C(=O)N[C@@H](C(=O)N1CCN(C)CC1)[C@@H](C)c1ccc(NC(=O)[C@@H](NC(=O)c2ccnn2CC)C(C2CC2)C2CC2)c(F)c1 [Compound 316] |
| 10 to 100 | < 10 | CCn1nccc1C(=O)N[C@H](C(=O)Nc1ccc([C@H](C)[C@@H](NC(=O)C(C2CC2)C2CC2)C(=O)N2CCN(C)[C@H](C)C2)cc1F)C(C1CC1)C1CC1 [Compound 319] |
| 10 to 100 | < 10 | CCn1nccc1C(=O)N[C@H](C(=O)Nc1ccc([C@H](C)[C@@H](NC(=O)C(C2CC2)C2CC2)C(=O)N2CCN(C)CC2)cc1F)C(C1CC1)C1CC1 [Compound 330] |
| 100 to 10000 | < 10 | CO[C@@H](C)C(=O)N[C@@H](C(=O)N1CCN(C)CC1)[C@@H](C)c1ccc(NC(=O)[C@@H](NC(=O)c2ccnn2C2CC2)C(C2CC2)C2CC2)c(F)c1 [Compound 341] |
| 10 to 100 | < 10 | CO[C@@H](C)C(=O)N[C@@H](C(=O)N1CCN(C)[C@H](C)C1)[C@@H](C)c1ccc(NC(=O)[C@@H](NC(=O)c2ccnn2C2CC2)C(C2CC2)C2CC2)c(F)c1 [Compound 342] |
| 10 to 100 | < 10 | COCC(=O)N[C@@H](C(=O)N1CCN(C)CC1)[C@@H](C)c1ccc(NC(=O)[C@@H](NC(=O)c2ccnn2C(C)C)C(C2CC2)C2CC2)c(F)c1 [Compound 345] |
| 100 to 10000 | 10 to 100 | COCC(=O)N[C@@H](C(=O)N1CCN(C)CC1)[C@@H](C)c1ccc(NC(=O)[C@@H](NC(=O)c2nonc2C)C(C2CC2)C2CC2)c(F)c1 [Compound 346] |
| 100 to 10000 | < 10 | CO[C@@H](C)C(=O)N[C@@H](C(=O)N1CCN(C)CC1)[C@@H](C)c1ccc(NC(=O)[C@@H](NC(=O)c2nonc2C)C(C2CC2)C2CC2)c(F)c1 [Compound 347] |
| 100 to 10000 | < 10 | COCC(=O)N[C@@H](C(=O)N1CCN(C)[C@H](C)C1)[C@@H](C)c1ccc(NC(=O)[C@@H](NC(=O)c2nonc2C)C(C2CC2)C2CC2)c(F)c1 [Compound 348] |
| 100 to 10000 | < 10 | CCn1nccc1C(=O)N[C@H](C(=O)Nc1ccc([C@H](C)[C@@H](NC(=O)[C@@H](C)F)C(=O)N2CCN(C)[C@H](C)C2)cc1F)C(C1CC1)C1CC1 [Compound 349] |
| 100 to 10000 | < 10 | CCOC(=O)N[C@@H](CF)C(=O)N[C@@H](C(=O)N1CCN(C)[C@H](C)C1)[C@@H](C)c1ccc(NC(=O)[C@@H](NC(=O)C2(F)CC2)C(C2CC2)C2CC2)c(F)c1 [Compound 358] |
